ChEMBL document CHEMBL4261603, “Development of high potent and selective Bcl-2 inhibitors bearing the structural elements of natural product artemisinin” (Eur J Med Chem, 2018)

Tests used:
[1] = target: Voltage-gated inwardly rectifying potassium channel KCNH2 (Homo sapiens, UniProt Q12809); test: Inhibition of human ERG
[2] = target: Apoptosis regulator Bcl-2 (Homo sapiens, UniProt P10415); test: Inhibition of FAM-labelled Bax binding to Bcl2 (unknown origin) after 30 mins by fluorescence polarization assay
RS4-11 = test: Antiproliferative activity against human RS4:11 cells after 72 hrs by MTS assay; format: functional, cell-based; conditions: RS4-11, 72 h
Bcl-2-like protein 1 = Bcl-2-like protein 1 (Homo sapiens, UniProt Q07817); test: Inhibition of FAM-labelled Bax binding to Bcl-xL (unknown origin) after 30 mins by fluorescence polarization assay
[3] = Apparent permeability across apical to basolateral side in human Caco2 cells at 20 uM; format: ADME, cell-based; conditions: Caco-2
Toledo = test: Antiproliferative activity against human Toledo cells after 72 hrs by MTS assay; format: functional, cell-based
Homo sapiens = organism: Homo sapiens; test: Selectivity factor, ratio of IC50 for Bcl-xL (unknown origin) to Bcl2 (unknown origin)
[4] = Apparent permeability across basolateral to apical side in human Caco2 cells at 20 uM; format: ADME, cell-based; conditions: Caco-2
[5] = Efflux ratio of apparent permeability across […] to apical side in human Caco2 cells at 20 uM; format: ADME, cell-based; conditions: Caco-2

Apoptosis regulator Bcl-2, sequence (P10415 whole entry): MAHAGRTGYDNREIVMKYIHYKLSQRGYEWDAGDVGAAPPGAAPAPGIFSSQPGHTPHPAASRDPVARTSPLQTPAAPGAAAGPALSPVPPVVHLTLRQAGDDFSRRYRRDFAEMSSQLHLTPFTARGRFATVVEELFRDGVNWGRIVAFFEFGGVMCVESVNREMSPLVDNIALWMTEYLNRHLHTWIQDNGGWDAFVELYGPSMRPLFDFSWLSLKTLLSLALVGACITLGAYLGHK
Bcl-2-like protein 1, sequence (Q07817 whole entry): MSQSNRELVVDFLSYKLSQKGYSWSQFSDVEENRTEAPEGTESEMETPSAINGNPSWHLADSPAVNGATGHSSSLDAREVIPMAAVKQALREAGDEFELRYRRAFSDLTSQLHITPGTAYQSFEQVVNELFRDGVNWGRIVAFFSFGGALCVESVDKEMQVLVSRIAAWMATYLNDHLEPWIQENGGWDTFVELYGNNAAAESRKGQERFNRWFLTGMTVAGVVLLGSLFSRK
Voltage-gated inwardly rectifying potassium channel KCNH2, sequence (Q12809 whole entry): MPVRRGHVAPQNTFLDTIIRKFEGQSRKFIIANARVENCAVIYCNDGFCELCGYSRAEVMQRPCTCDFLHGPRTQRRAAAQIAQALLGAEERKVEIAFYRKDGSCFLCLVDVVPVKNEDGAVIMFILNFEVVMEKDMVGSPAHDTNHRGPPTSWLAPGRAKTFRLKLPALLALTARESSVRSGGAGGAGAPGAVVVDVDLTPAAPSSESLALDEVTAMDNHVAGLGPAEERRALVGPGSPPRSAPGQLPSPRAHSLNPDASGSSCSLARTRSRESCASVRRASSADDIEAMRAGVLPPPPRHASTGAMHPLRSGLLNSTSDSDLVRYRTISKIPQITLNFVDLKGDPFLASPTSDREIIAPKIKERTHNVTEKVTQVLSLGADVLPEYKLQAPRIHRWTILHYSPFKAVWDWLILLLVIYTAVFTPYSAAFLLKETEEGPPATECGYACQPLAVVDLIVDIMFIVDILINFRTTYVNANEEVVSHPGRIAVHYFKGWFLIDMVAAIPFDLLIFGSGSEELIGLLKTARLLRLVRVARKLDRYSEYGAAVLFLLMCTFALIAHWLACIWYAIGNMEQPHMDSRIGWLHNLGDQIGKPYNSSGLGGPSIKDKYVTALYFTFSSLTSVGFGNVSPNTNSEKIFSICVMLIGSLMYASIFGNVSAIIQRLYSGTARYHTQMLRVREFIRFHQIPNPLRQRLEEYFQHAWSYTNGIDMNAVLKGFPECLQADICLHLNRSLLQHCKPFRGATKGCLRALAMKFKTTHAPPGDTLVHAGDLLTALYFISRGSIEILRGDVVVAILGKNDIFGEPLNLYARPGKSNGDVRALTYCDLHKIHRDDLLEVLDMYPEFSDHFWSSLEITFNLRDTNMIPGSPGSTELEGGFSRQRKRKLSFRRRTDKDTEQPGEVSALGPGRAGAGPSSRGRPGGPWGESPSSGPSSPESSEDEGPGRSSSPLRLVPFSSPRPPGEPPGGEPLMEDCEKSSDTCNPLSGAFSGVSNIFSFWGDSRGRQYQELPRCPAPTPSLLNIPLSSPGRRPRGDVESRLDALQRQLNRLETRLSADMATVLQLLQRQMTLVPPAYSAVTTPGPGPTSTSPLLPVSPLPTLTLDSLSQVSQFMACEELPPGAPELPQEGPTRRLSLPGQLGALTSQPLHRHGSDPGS

| SMILES | IC50 [1] [nM] | IC50 [2] [nM] | IC50 (RS4-11) [nM] | IC50 (Bcl-2-like protein 1) [nM] | Papp A→B at 20 µM [3] [×10⁻⁶ cm/s] | IC50 (Toledo) [nM] | Ratio IC50 (Homo sapiens) | Papp B→A at 20 µM [4] [×10⁻⁶ cm/s] | efflux ratio at 20 µM [5] |
| --- | --- | --- | --- | --- | --- | --- | --- | --- | --- |
| C[C@H]1[C@@H](OCCN2CCN(c3ccc(C(=O)NS(=O)(=O)c4ccc(NCC5CCOCC5)c([N+](=O)[O-])c4)c(Oc4cnc5[nH]ccc5c4)c3)CC2)O[C@@H]2O[C@@]3(C)CC[C@H]4[C@H](C)CC[C@@H]1[C@@]24OO3 | > 40000 | 5 | 520 | 279 | 0.21 | 950 | 55.3 | 6.07 | 28.8 |
| C[C@H]1[C@@H](CCCN2CCN(c3ccc(C(=O)NS(=O)(=O)c4ccc(NCC5CCOCC5)c([N+](=O)[O-])c4)c(Oc4cnc5[nH]ccc5c4)c3)CC2)O[C@@H]2O[C@@]3(C)CC[C@H]4[C@H](C)CC[C@@H]1[C@@]24OO3 | > 40000 | 1.2 | 890 | > 1000 |  | 880 | > 806 |  |  |
| CO[C@H]1OC2O[C@@]3(C)CC[C@H]4[C@H](C)CC[C@@H]([C@]1(C)CC(=O)N1CCN(c5ccc(C(=O)NS(=O)(=O)c6ccc(NCC7CCOCC7)c([N+](=O)[O-])c6)c(Oc6cnc7[nH]ccc7c6)c5)CC1)[C@@]24OO3 (stereo partly drawn) |  | 34.7 |  | > 1000 |  |  | > 28.8 |  |  |
| C[C@H]1[C@@H](OCCN2CCN(c3ccc(C(=O)NS(=O)(=O)c4ccc(NCC5CCOCC5)c([N+](=O)[O-])c4)c(Oc4cnc5[nH]ccc5c4)c3)CC2)O[C@@H]2O[C@@]3(C)CC[C@H]4[C@H](C)CC[C@@H]1[C@@]24O3 |  | 2.2 | 4400 | 624 |  | 9700 | 280 |  |  |
| C[C@@H]1CC[C@H]2[C@@](C)(O)[C@@H](OCCN3CCN(c4ccc(C(=O)NS(=O)(=O)c5ccc(NCC6CCOCC6)c([N+](=O)[O-])c5)c(Oc5cnc6[nH]ccc6c5)c4)CC3)O[C@@H]3O[C@@]4(C)CC[C@@H]1[C@]32OO4 |  | 86.5 |  | 287 |  |  | 3.3 |  |  |
| C[C@@H]1CC[C@H]2C(CN3CCN(c4ccc(C(=O)NS(=O)(=O)c5ccc(NCC6CCOCC6)c([N+](=O)[O-])c5)c(Oc5cnc6[nH]ccc6c5)c4)CC3)=C(C(F)(F)F)O[C@@H]3O[C@@]4(C)CC[C@@H]1[C@]32O4 |  | 2.8 | 1900 | 970 |  | 7400 | 343 |  |  |
| C[C@H]1[C@@H](CC(=O)N2CCN(c3ccc(C(=O)NS(=O)(=O)c4ccc(NCC5CCOCC5)c([N+](=O)[O-])c4)c(Oc4cnc5[nH]ccc5c4)c3)CC2)O[C@@H]2O[C@@]3(C)CC[C@H]4[C@H](C)CC[C@@H]1[C@@]24O3 |  | 3.5 | > 1000 | 270 |  | > 1000 | 77.2 |  |  |
| C[C@@H]1CC[C@H]2[C@@H](C)C(OCCN3CCN(c4ccc(C(=O)NS(=O)(=O)c5ccc(NCC6CCOCC6)c([N+](=O)[O-])c5)c(Oc5cnc6[nH]ccc6c5)c4)C[C@H]3CO)O[C@@H]3O[C@@]4(C)CC[C@@H]1[C@]32OO4 (stereo partly drawn) |  | 67.1 | > 1000 | > 1000 |  | > 1000 | 14.9 |  |  |
| C[C@H]1[C@@H](CC(=O)N2CCN(c3ccc(C(=O)NS(=O)(=O)c4ccc(NCC5CCOCC5)c([N+](=O)[O-])c4)c(Oc4cnc5[nH]ccc5c4)c3)CC2)O[C@@H]2O[C@]3(C)O[C@]24[C@H]1CC[C@@H](C)[C@@H]4C[C@H]3O |  | 50.1 | > 1000 | 765 |  | > 1000 | 15.3 |  |  |
| C[C@@H]1CC[C@@H]2[C@]34OO[C@](C)(CC[C@@H]13)O[C@H]4O[C@]2(C)C(=O)N1CCN(c2ccc(C(=O)NS(=O)(=O)c3ccc(NCC4CCOCC4)c([N+](=O)[O-])c3)c(Oc3cnc4[nH]ccc4c3)c2)CC1 |  | 13 |  | 512 |  |  | 39.2 |  |  |
| C[C@@H]1CC[C@H]2[C@@H](C)C(OCCNC3CCN(c4ccc(C(=O)NS(=O)(=O)c5ccc(NCC6CCOCC6)c([N+](=O)[O-])c5)c(Oc5cnc6[nH]ccc6c5)c4)CC3)O[C@@H]3O[C@@]4(C)CC[C@@H]1[C@]32OO4 (stereo partly drawn) |  | 1.9 | > 1000 | > 1000 |  | > 1000 | > 526 |  |  |
| C[C@@H]1CC[C@H]2[C@@H](C)C(OCCN3CCN(c4ccc(C(=O)NS(=O)(=O)c5ccc(NCC6CCOCC6)c([N+](=O)[O-])c5)c(Oc5cnc6[nH]ccc6c5)c4)C[C@@H]3CO)O[C@@H]3O[C@@]4(C)CC[C@@H]1[C@]32OO4 (stereo partly drawn) |  | 28.7 | > 1000 | > 1000 |  | > 1000 | 34.8 |  |  |
| C[C@@H]1CC[C@H]2C(CN3CCN(c4ccc(C(=O)NS(=O)(=O)c5ccc(NCC6CCOCC6)c([N+](=O)[O-])c5)c(Oc5cnc6[nH]ccc6c5)c4)CC3)=C(C(F)(F)F)O[C@@H]3O[C@@]4(C)CC[C@@H]1[C@]32OO4 |  | 6.2 | > 1000 | 71.9 |  | > 1000 | 11.7 |  |  |
| C[C@H]1[C@@H](CCN2CCN(c3ccc(C(=O)NS(=O)(=O)c4ccc(NCC5CCOCC5)c([N+](=O)[O-])c4)c(Oc4cnc5[nH]ccc5c4)c3)CC2)O[C@@H]2O[C@@]3(C)CC[C@H]4[C@H](C)CC[C@@H]1[C@@]24O3 |  | 1.8 | 1300 | > 1000 |  | 2600 | > 546 |  |  |
| C[C@H]1[C@@H](CCN2CCN(c3ccc(C(=O)NS(=O)(=O)c4ccc(NCC5CCOCC5)c([N+](=O)[O-])c4)c(Oc4cnc5[nH]ccc5c4)c3)CC2)O[C@@H]2O[C@@]3(C)CC[C@H]4[C@H](C)CC[C@@H]1[C@@]24OO3 |  | 9.7 |  | > 1000 |  |  | > 103 |  |  |
| CC1(C)CCC(CN2CCN(c3ccc(C(=O)NS(=O)(=O)c4ccc(NCC5CCOCC5)c([N+](=O)[O-])c4)c(Oc4cnc5[nH]ccc5c4)c3)CC2)=C(c2ccc(Cl)cc2)C1 [VENETOCLAX] |  |  | 6 |  |  | 11 |  |  |  |
| C[C@H]1[C@H](N(C)CCN2CCN(c3ccc(C(=O)NS(=O)(=O)c4ccc(NCC5CCOCC5)c([N+](=O)[O-])c4)c(Oc4cnc5[nH]ccc5c4)c3)CC2)O[C@@H]2O[C@@]3(C)CC[C@H]4[C@H](C)CC[C@@H]1[C@@]24OO3 |  | 16.7 |  | > 1000 |  |  | > 59.9 |  |  |
| C[C@H]1[C@@H](CC(=O)N2CCN(c3ccc(C(=O)NS(=O)(=O)c4ccc(NCC5CCOCC5)c([N+](=O)[O-])c4)c(Oc4cnc5[nH]ccc5c4)c3)CC2)O[C@@H]2O[C@@]3(C)CC[C@H]4[C@H](C)CC[C@@H]1[C@@]24OO3 |  | 11.9 |  | 109 |  |  | 9.16 |  |  |
| C[C@H]1[C@@H](OCCN2CCN(c3ccc(C(=O)NS(=O)(=O)c4ccc(NCC5CCOCC5)c([N+](=O)[O-])c4)c(Oc4cnc5[nH]ccc5c4)c3)CC2)O[C@@H]2O[C@]3(C)O[C@]24[C@H]1CC[C@@H](C)[C@@H]4C[C@H]3O |  | 31.9 |  | > 1000 |  |  | > 31.3 |  |  |
